Results taken from publication PMC10831071, “Reaction hijacking inhibition of Plasmodium falciparum asparagine tRNA synthetase” (Nature Communications, 2024).
“And” between values parts separate entries of the source, which are not always exact repeats. Equal values may be shown once. Read-outs that look alike come from different tables or passages of the source.

Legend:
[1] = system: PfCA cKD P. falciparum line; experiment: microbe, parasite or virus in culture; type: cell-based, Plasmodium falciparum; details: for Growth: PfCA K/D
Description: (§1) Conditional knockdown (cKD) P. falciparum lines were generated for the cytosolic AsnRS (PF3D7_0211800), cytosolic AlaRS (PF3D7_1367700), cytosolic GlyRS (GlyRS; PF3D7_1420400), PfNT4 (PF3D7_0103200), P. falciparum glutamate dehydrogenase 3 (GDH3; PF3D7_0802000), and P. falciparum carbonic anhydrase (CA, PF3D7_1140000) by fusing the coding sequences and non-coding RNA aptamer sequences in the 3’-UTR, permitting translation regulation using the TetR-DOZI system[59],[60]. Gene editing was achieved by CRISPR/SpCas9 using the linear pSN054 vector that contains cloning sites for the left homology region (LHR) and the right homology region (RHR) as well a target-specific guide RNA under control of the T7 promoter. Cloning into the pSN054 donor vector was carried out following described procedures[59],[60]. The vector includes V5-2xHA epitope tags, a 10x tandem array of TetR aptamers upstream of an Hsp86 3’UTR, and a multicistronic cassette for expression of TetR-DOZI (translation regulation), blasticidin S-deaminase (selection marker) and a Renilla luciferase (RLuc) reporter. All primer and synthetic fragment sequences that were generated using the BioXP™ system and IDT gBlocks™ are included in Supplementary Table 9. The final constructs were sequence-verified and further confirmed by restriction digests.
(§2) Transfection into Cas9- and T7 RNA polymerase-expressing NF54 parasites was carried out by pre-loading red blood cells (RBCs) with the donor vector[61]. […] Cultures were monitored by Giemsa smears and RLuc measurements.
(§3) DMSO- and dihydroartemisinin-treatment (0.5 µM) served as reference controls.

[2] = system: PfGDH3 cKD P. falciparum line; experiment: microbe, parasite or virus in culture; type: cell-based, Plasmodium falciparum; details: for Growth: PfGDH K/D
Description: as §1, §2, §3

[3] = system: PfNT4 cKD P. falciparum line; experiment: microbe, parasite or virus in culture; type: cell-based, Plasmodium falciparum; details: for growth after 72 h exposure, normalised to no drug: PfNT4 K/D, replicates; for IC50: PfNT4 line, individual repeats
Description: as §1, §2, §3

[4] = Solid state stability under ambient conditions; type: physicochemical

Question: Which Growth ([1]; 50 nM OSM-S-106, 500 nM aTc) does the source give for `Nc1ncnc2cc(-c3cccc(S(N)(=O)=O)c3)sc12` [OSM-S-106] here?
Answer: 39.8979 and 23.9771 and 45.5735

Question: What about the Growth ([1]; 50 nM OSM-S-106, no aTc) of the same compound?
Answer: 31.2463 and 15.9234 and 30.4793

Question: And the Growth ([1]; 100 nM OSM-S-106, 500 nM aTc)?
Answer: 11.4398

Question: What about the Growth ([1]; 100 nM OSM-S-106, no aTc) of the same compound?
Answer: 10.8379 and 9.475 and 12.418

Question: What about the Growth ([1]; 200 nM OSM-S-106, 500 nM aTc) of the same compound?
Answer: 5.818 and 8.3279 and 9.44

Question: And the Growth ([1]; 200 nM OSM-S-106, no aTc)?
Answer: 6.983 and 9.353 and 10.7306

Question: And the Growth ([1]; 400 nM OSM-S-106, no aTc)?
Answer: 0.8215 and 0.8297 and 1.231

Question: And the IC50 ([1]; PfCA line, 500 nM aTc, individual repeats)?
Answer: 0.0313 µM and 0.0376 µM

Question: And the IC50 ([1]; Plasmodium falciparum, PfCA line, 1 nM, […] aTc or no aTc, individual repeats)?
Answer: 0.023 µM

Question: What about the IC50 ([1]; Plasmodium falciparum, PfCA line, 500 nM aTc, individual repeats) of the same compound?
Answer: 0.0292 µM

Question: And the IC50 ([1]; Plasmodium falciparum, read-out: Mean IC50 with 500 nM aTc, PfCA line, 500 nM aTc)?
Answer: 0.033 µM

Question: And the IC50 ([1]; Plasmodium falciparum, read-out: Mean IC50 with low (1 or […])/ no aTc, PfCA knockdown, no aTc)?
Answer: 0.026 µM

Question: And the Growth ([2]; 3.125 nM OSM-S-106, 500 nM aTc)?
Answer: 94.0541 and 124.457 and 123.311 and 110.909

Question: What about the Growth ([2]; 3.125 nM OSM-S-106, no aTc) of the same compound?
Answer: 87.3995 and 105.933 and 109.078 and 106.271

Question: And the Growth ([2]; 6.25 nM OSM-S-106, 500 nM aTc)?
Answer: 100.123 and 114.751 and 110.911 and 107.384

Question: And the Growth ([2]; 6.25 nM OSM-S-106, no aTc)?
Answer: 83.7383 and 126.64 and 124.278 and 107.945

Question: What about the Growth ([2]; 12.5 nM OSM-S-106, 500 nM aTc) of the same compound?
Answer: 87.2036 and 124.904 and 116.677 and 110.631

Question: What about the Growth ([2]; 12.5 nM OSM-S-106, no aTc) of the same compound?
Answer: 66.2785 and 97.9464 and 116.025 and 105.41

Question: What about the Growth ([2]; 200 nM OSM-S-106, 500 nM aTc) of the same compound?
Answer: 11.4175 and 15.1341 and 15.4371 and 10.7452

Question: And the Growth ([2]; 200 nM OSM-S-106, no aTc)?
Answer: 9.827 and 15.4022 and 15.1307 and 8.291

Question: And the IC50 ([2]; PfGDH3 line, 500 nM aTc, individual repeats)?
Answer: 0.0228 µM and 0.0695 µM and 0.0365 µM and 0.0302 µM

Question: What about the IC50 ([2]; Plasmodium falciparum, read-out: Mean IC50 with 500 nM aTc, PfGDH3 line, 500 nM aTc) of the same compound?
Answer: 0.04 µM

Question: And the IC50 ([2]; Plasmodium falciparum, read-out: Mean IC50 with low (1 or […])/ no aTc, PfGDH3 knockdown, no aTc)?
Answer: 0.046 µM

Question: What about the “growth after 72 h exposure, normalised to no drug” value (“growth … normalised to no drug” below) ([3]; 500 nM aTc, 0.488281 nM) of the same compound?
Answer: 115.319 and 105.291 and 111.528

Question: And the “growth … normalised to no drug” value ([3]; 500 nM aTc, 0.976562 nM)?
Answer: 113.41 and 102.567 and 108.441

Question: What about the “growth … normalised to no drug” value ([3]; 500 nM aTc, 1.95312 nM) of the same compound?
Answer: 108.529 and 100.357 and 100.986

Question: What about the “growth … normalised to no drug” value ([3]; 500 nM aTc, 3.90625 nM) of the same compound?
Answer: 110.366 and 98.6162 and 100.564

Question: And the “growth … normalised to no drug” value ([3]; 500 nM aTc, 7.8125 nM)?
Answer: 101.389 and 100.305 and 97.246

Question: What about the “growth … normalised to no drug” value ([3]; 500 nM aTc, 31.25 nM) of the same compound?
Answer: 11.2119 and 13.2391 and 14.7628

Question: What about the “growth … normalised to no drug” value ([3]; 500 nM aTc, 62.5 nM) of the same compound?
Answer: 1.785 and 2.763 and 1.994

Question: What about the “growth … normalised to no drug” value ([3]; 500 nM aTc, 125 nM) of the same compound?
Answer: 0.2373 and 0.4204 and 0.2459

Question: What about the “growth … normalised to no drug” value ([3]; 500 nM aTc, 250 nM) of the same compound?
Answer: 0.2337 and 0.2689 and 0.2037

Question: And the “growth … normalised to no drug” value ([3]; no aTc, 0.488281 nM)?
Answer: 115.9 and 108.506 and 115.265

Question: What about the “growth … normalised to no drug” value ([3]; no aTc, 0.976562 nM) of the same compound?
Answer: 107.637 and 104.459 and 111.884

Question: And the “growth … normalised to no drug” value ([3]; no aTc, 1.95312 nM)?
Answer: 103.621 and 102.992 and 106.407

Question: And the “growth … normalised to no drug” value ([3]; no aTc, 3.90625 nM)?
Answer: 93.8123 and 99.6909 and 104.029

Question: What about the “growth … normalised to no drug” value ([3]; no aTc, 7.8125 nM) of the same compound?
Answer: 30.4373 and 37.6726 and 51.4607

Question: What about the “growth … normalised to no drug” value ([3]; no aTc, 31.25 nM) of the same compound?
Answer: 0.5987 and 0.9711 and 0.5614

Question: What about the “growth … normalised to no drug” value ([3]; no aTc, 62.5 nM) of the same compound?
Answer: 0.1353 and 0.2821 and 0.05072

Question: What about the “growth … normalised to no drug” value ([3]; no aTc, 125 nM) of the same compound?
Answer: 0.1322 and 0.3476 and 0.0472

Question: What about the “growth … normalised to no drug” value ([3]; no aTc, 250 nM) of the same compound?
Answer: 0.1415 and 0.3214 and 0.1916

Question: What about the IC50 ([3]; 500 nM aTc) of the same compound?
Answer: 0.0205 µM and 0.0214 µM

Question: What about the IC50 ([3]; Plasmodium falciparum, 1 nM, […] aTc or no aTc) of the same compound?
Answer: 0.00609 µM

Question: And the IC50 ([3]; Plasmodium falciparum, 500 nM aTc)?
Answer: 0.0199 µM

Question: What about the “stability in the solid state” value [4] of the same compound?
Answer: stable in the solid state
